# Source: patent US20090275557A1, “Novel Composition for Treatment of Diseases Related to Activated Lymphocytes” (Immune Control, Inc., priority 2008, published 2009)
# Tested on: bovine type 2 collagen immunized rats
# Assay: Collagen-induced arthritis assay, IP injection protocol, ankle diameter
# Type: in vivo, rat
# Conditions: IP injection 10 mg/kg once per day, study days 1-3; observed on study days 2-4
# Method: Female Lewis rats (CR) weighing between 125-200 g were immunized with bovine type 2 collagen, 2 mg/ml in a 1:1 solution of 0.01 N acetic acid and Freund's incomplete adjuvant (“FIA”). A 0.1 ml portion of the collagen solution was injected id (intradermally) at three sites on the rat. Rats were immunized with the collagen solution on days 1 and 6 of the study. […] On day 9 (study day “0”), baseline ankle diameters were measured. On days 10-15 (study days 1-6), the rats were then treated, via oral gavage, with either 1, 5, or 25 mg/kg of one of ICI-1259 or ICI-1260, prepared as described below. Ankle diameter measurements were measured on each of days 10-16.
# Compounds ICI-1259, ICI-1260, ICI-1505, and ICI-1506 were administered via IP injection to treat collagent-induced arthritis in a variation of the experiments described above. Under the protocol of the IP injection experiments, animal were immunized with Bovine Type 2 collagen as previously described. […] On day 9 (study day “0”), baseline ankle diameters were measured. On days 10-12 (study days 1-3), the rats were then treated once per day, via IP injection, with one of ICI-1259, ICI-1260, ICI-1505, or ICI-1506 at 10 mg/kg. Ankle diameter in the immunized rodents was measured on each of days 10-13 as well as on day 14. […] See FIG. 18 (ICI-1259, ICI-1260, and ICI-1505) and FIG. 19 (ICI-1506).
# In a separate study, using the IP injection protocol described above, ICI-1259 and 1260 were each dosed at 2 mg/kg and 0.4 mg/kg.
row,Compound,reduction in ankle swelling (ankle diameter)
1,"CN(C)CCCN1CCC(CCCN2c3ccccc3Sc3ccc(C(F)(F)F)cc32)CC1 [ICI-1505, N,N-dimethyl-3-(4-(3-(2-(trifluoromethyl)-10H-phenothiazin-10-yl)propyl)piperidin-1-yl)propan-1-amine]",statistically significant results were observed
2,"FC(F)(F)c1ccc2c(c1)N(CCCC1CCN(CCCN3CCCCC3)CC1)c1ccccc1S2 [ICI-1506, 10-(3-(1-(3-(piperidin-1-yl)propyl)piperidin-4-yl)propyl)-2-(trifluoromethyl)-10H-phenothiazine]",statistically significant results were observed
